# Measurements reported in patent US10385080B2, “STAT6 inhibitors” (Board of Regents, The University of Texas System, priority 2013, dated 2019).
# Target: T1, STAT6 (Homo sapiens, UniProt P42226)
# T1 sequence (P42226 1-847): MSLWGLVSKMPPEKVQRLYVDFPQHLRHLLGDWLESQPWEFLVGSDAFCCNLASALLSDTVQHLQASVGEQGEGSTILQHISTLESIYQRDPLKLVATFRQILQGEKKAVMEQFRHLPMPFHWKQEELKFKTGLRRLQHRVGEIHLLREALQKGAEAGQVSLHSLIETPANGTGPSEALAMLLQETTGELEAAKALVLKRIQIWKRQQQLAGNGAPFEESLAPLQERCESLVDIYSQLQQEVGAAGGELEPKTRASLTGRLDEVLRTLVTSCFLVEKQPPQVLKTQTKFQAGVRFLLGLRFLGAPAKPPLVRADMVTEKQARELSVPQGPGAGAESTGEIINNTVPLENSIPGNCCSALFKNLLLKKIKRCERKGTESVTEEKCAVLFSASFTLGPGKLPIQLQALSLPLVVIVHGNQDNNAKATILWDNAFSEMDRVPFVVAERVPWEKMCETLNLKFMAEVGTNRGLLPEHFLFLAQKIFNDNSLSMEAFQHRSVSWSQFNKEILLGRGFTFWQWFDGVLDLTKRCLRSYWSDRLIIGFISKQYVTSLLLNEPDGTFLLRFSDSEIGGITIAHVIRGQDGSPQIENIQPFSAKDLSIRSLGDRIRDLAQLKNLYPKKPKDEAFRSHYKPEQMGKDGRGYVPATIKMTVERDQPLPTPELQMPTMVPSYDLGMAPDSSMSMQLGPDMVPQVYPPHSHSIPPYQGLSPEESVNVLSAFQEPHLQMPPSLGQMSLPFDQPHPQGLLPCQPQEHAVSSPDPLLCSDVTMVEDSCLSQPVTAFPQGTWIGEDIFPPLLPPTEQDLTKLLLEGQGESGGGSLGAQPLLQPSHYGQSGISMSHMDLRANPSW
# Assay: Fluorescence polarization competition with FAM-labelled IL-4Rα Tyr631 phosphopeptide for binding to STAT6
# Conditions: other phosphate-containing STAT6 inhibitors; competition with FAM-Ala-pTyr-Lys-Pro-Phe-Gln-Asp-Leu-Ile-NH2
# From the text: The following structures as phosphate esters were synthesized and assayed them for the ability to compete with FAM-Ala-pTyr-Lys-Pro-Phe-Gln-Asp-Leu-Ile-NH2, derived from Tyr631 of IL-4Rα, for binding to STAT6 using fluorescence polarization (FAM=5-carboxyfluorescein). The fluorescence polarization methodology was adapted from Wu et al., 1997, which is incorporated herein by reference. Amide bond replacements, cyclic amides, and cyclic lactams in the central part of the compound were explored.
row,SMILES,IC50 [nM]
1,C/C(=C\C(=O)N[C@H](C(=O)N[C@@H](C)C(=O)N(C)c1ccccc1)C(C)(C)C)c1ccc(OP(=O)(O)O)cc1 [PM-26I],120 ± 16
2,C/C(=C\C(=O)N[C@H](C(=O)N1CCC[C@H]1C(=O)N(C)C1CCCCC1)C(C)(C)C)c1ccc(OP(=O)(O)O)cc1 [PM-70I],230 ± 140
3,C/C(=C\C(=O)N[C@H](C(=O)N1CCC[C@H]1C(=O)N(c1ccccc1)c1ccc(I)cc1)C(C)(C)C)c1ccc(OP(=O)(O)O)cc1 [PM-286H],53 ± 10
4,CC(C)(C)[C@H](NC(=O)/C=C/c1ccc(OP(=O)(O)O)cc1)C(=O)N1CCC[C@H]1C(=O)N(c1ccccc1)c1ccc(I)cc1 [PM-287H],73 ± 10
5,CC(C)(C)[C@H](NC(=O)/C=C/c1ccc(OP(=O)(O)O)cc1)C(=O)N1CCC[C@H]1C(=O)N(c1ccccc1)c1ccccc1 [PM-300H-A],120 ± 40
6,C/C(=C\C(=O)N[C@H](C(=O)N1CCC[C@H]1C(=O)N(c1ccccc1)c1ccccc1)C(C)(C)C)c1ccc(OP(=O)(O)O)cc1 [PM-300H-B],89 ± 10
7,C/C(=C\C(=O)N[C@H](C(=O)N1CCC[C@H]1C(=O)N(C)c1ccccc1)C(C)(C)C)c1ccc(OP(=O)(O)O)cc1 [PM-301H],117 ± 30
8,C/C(=C\C(=O)N[C@H](C(=O)N1CCC[C@H]1C(=O)Nc1ccccc1)C(C)(C)C)c1ccc(OP(=O)(O)O)cc1 [PM-302H-A],268 ± 70
9,CCN(CC)C(=O)[C@@H]1CCCN1C(=O)[C@@H](NC(=O)/C=C(\C)c1ccc(OP(=O)(O)O)cc1)C(C)(C)C [PM-302H-B],377 ± 90

# Same assay, conditions: select phosphate-containing STAT6 inhibitors; competition with FAM-Ala-pTyr-Lys-Pro-Phe-Gln-Asp-Leu-Ile-NH2
row,SMILES,IC50 [nM]
1,C/C(=C\C(=O)N[C@H](C(=O)N1CCC[C@H]1/C=C/CCc1ccccc1)C(C)(C)C)c1ccc(OP(=O)(O)O)cc1 [PM-9I],771 ± 290
2,C/C(=C\C(=O)N[C@H](C(=O)N1CCC[C@H]1CCCCc1ccccc1)C(C)(C)C)c1ccc(OP(=O)(O)O)cc1 [PM-10I],2090 ± 930
3,C/C(=C\C(=O)N[C@H]1CCCCN(CC(=O)N(C)c2ccccc2)C1=O)c1ccc(OP(=O)(O)O)cc1 [PM-28I],630 ± 13
4,C/C(=C\C(=O)NC1CCc2cccc3c2N(C1=O)[C@H](C(=O)N(C)c1ccccc1)C3)c1ccc(OP(=O)(O)O)cc1 (some centres unmarked) [PM-34I],280 ± 60
5,C/C(=C\C(=O)N[C@H](C(=O)N1CCC[C@H]1C(=O)N1CCc2ccccc21)C(C)(C)C)c1ccc(OP(=O)(O)O)cc1 [PM-59I],260 ± 90
6,C/C(=C\C(=O)N[C@H](C(=O)NC1CCCCN(c2ccccc2)C1=O)C(C)(C)C)c1ccc(OP(=O)(O)O)cc1 (some centres unmarked) [PM-60I],2330 ± 500
7,C/C(=C\C(=O)N[C@H](C(=O)N1CCC[C@H]1C(=O)N1CCCCC1)C(C)(C)C)c1ccc(OP(=O)(O)O)cc1 [PM-67I-A],370 ± 90
8,C/C(=C\C(=O)N[C@H](C(=O)N1CCC[C@H]1C(=O)N1CCOCC1)C(C)(C)C)c1ccc(OP(=O)(O)O)cc1 [PM-67I-B],103 ± 50
9,C/C(=C\C(=O)N[C@H](C(=O)N1CCC[C@H]1C(=O)N1CCN(C)CC1)C(C)(C)C)c1ccc(OP(=O)(O)O)cc1 [PM-67I-C],1900 ± 840
10,C/C(=C\C(=O)N[C@H](C(=O)N1CCC[C@H]1C(=O)N1CCc2ccccc2C1)C(C)(C)C)c1ccc(OP(=O)(O)O)cc1 [PM-71-A],50 ± 40
11,C/C(=C\C(=O)N[C@H](C(=O)N1CCC[C@H]1C(=O)N1CCCc2ccccc21)C(C)(C)C)c1ccc(OP(=O)(O)O)cc1 [PM-87I],240 ± 130

# Tested on: Stat5
# Assay: Selectivity: Stat5 phosphorylation in EGF-stimulated MDA-MB-468 cells
# Format: cell-based
# Conditions: serum starved MDA-MB-468 cells, 2 hr
# Protocol: (§1) Compounds were screened at 5 μM for their ability to inhibit IL-4 stimulated phosphorylation of STAT6 in Beas-2B immortalized human airway cells. Cells were treated with prodrug for 2 hr and then stimulated with IL-4. After 30 min cells were lysed and pSTAT6 and total STAT6 were measured with western blots (FIG. 7). Without being bound by theory, the inhibition observed is consistent with compounds entering cells, being stripped of the POM groups, binding to the SH2 domain of STAT6, blocking binding to IL-4Rα and preventing phosphorylation of Tyr641. […] Compounds resulting in <10% residual phosphorylation were taken on to MTS cytotoxicity assays and dose response assays. (FIG. 8). The cyclic aromatic amides PM-63I, PM-80I, PM-81I, and PM-86I were very potent with IC50 values from 50-500 nM. […] With the exception of PM-43I, concentrations that inhibit STAT6 phosphorylation are 20-100 fold lower than those resulting in toxicity. STAT6 inhibitors were assayed for their ability to inhibit the phosphorylation of STAT 1, STAT 3, STAT 5, Akt, and FAK, all processes that depend on SH2 domain-phosphotyrosine interactions (Mandal, P. K. et al. 2011). Serum starved MDA-MB-468 breast cancer cells were treated with STAT6 inhibitors for 2 hr and then were stimulated with EGF (See FIGS. 9A and 9B).
row,SMILES,cross reactivity with Stat5
1,C/C(=C\C(=O)N[C@H](C(=O)N1CCC[C@H]1C(=O)N1CCc2ccccc21)C(C)(C)C)c1ccc(C(F)(F)P(=O)(OCOC(=O)C(C)(C)C)OCOC(=O)C(C)(C)C)cc1 [PM-63I],significant cross reactivity

# Tested on: asthma-related parameters
# Assay: Dose effect on asthma-related parameters in fungus-challenged mice
# Format: in vivo
# Conditions: dose of 5 micrograms
# Protocol: (§2) The issue of toxicity was addressed with the newer synthetic STAT6 peptidomimetic agents 86i and 43i in two ways. First, the inventors determined the effect of each inhibitor on asthma-related parameters in fungus-challenged mice. […] Second, the weights of mice were measured during challenge with the different doses of both STAT6 inhibitors.
# Mice were challenged intranasally with a clinical isolate of 4×10^5 A. niger conidia every two days for a total of 8 challenges and treated with 50 μg of the indicated β-agonist, liposome vehicle (DLPC) and/or PM-242H (5 or 50 μg) intranasally as indicated and the allergic airway disease phenotype was determined according to previously described methods (Porter, P. et al. 2009).
# Allergic airway disease was assessed as previously described (Porter, P. et al. 2009). Changes in respiratory system resistance (RRS) in response to intravenous acetylcholine challenge, bronchoalveolar lavage (BAL) fluid differential counts, and analysis of lung IL-4, IL-17A and IFN-γ producing cells by enzyme linked immunocell spot assay (ELISpot) were performed as previously described (Lee, S. H. et al. 2003; Polikepahad, S. et al. 2010).
SMILES,inhibition of airway hyperresponsiveness,inhibition of airway inflammation,inhibition of lung IL-4 responses
C/C(=C\C(=O)N[C@H](C(=O)N1CCC[C@H]1C(=O)N1CCCc2ccccc21)C(C)(C)C)c1ccc(C(F)(F)P(=O)(OCOC(=O)C(C)(C)C)OCOC(=O)C(C)(C)C)cc1 [PM-86I],intermediately effective,maximally effective,maximally effective

# Same assay, conditions: dose of 50 micrograms
row,SMILES,inhibition of airway hyperresponsiveness
1,C/C(=C\C(=O)N[C@H](C(=O)N1CCC[C@H]1C(=O)N1CCCc2ccccc21)C(C)(C)C)c1ccc(C(F)(F)P(=O)(OCOC(=O)C(C)(C)C)OCOC(=O)C(C)(C)C)cc1 [PM-86I],maximally effective

# Same assay, conditions: dose of 50 micrograms; to sham-treated levels
row,SMILES,lung inflammation and IL-4 responses
1,C/C(=C\C(=O)N[C@H](C(=O)N1CCC[C@H]1C(=O)N1CCCc2ccccc21)C(C)(C)C)c1ccc(C(F)(F)P(=O)(OCOC(=O)C(C)(C)C)OCOC(=O)C(C)(C)C)cc1 [PM-86I],rebound

# Tested on: not listed separately
# Assay: Toxicity: weights of mice during challenge with different doses
# Format: in vivo
# Conditions: different doses
# Protocol: as §2
row,SMILES,toxicity by weight gain over the period of drug administration
1,C/C(=C\C(=O)N[C@H](C(=O)N1CCC[C@H]1C(=O)N1CCCc2ccccc21)C(C)(C)C)c1ccc(C(F)(F)P(=O)(OCOC(=O)C(C)(C)C)OCOC(=O)C(C)(C)C)cc1 [PM-86I],no toxicity

# Target: T1, STAT6
# Assay: Inhibition of IL-4 (and IL-13) stimulated phosphorylation of STAT6 in Beas-2B cells, western blot
# Format: cell-based
# Set-up: endogenous in cells; host or cells: Beas-2B immortalized human airway cells
# Conditions: dose response
# Protocol: Compound PM-241H inhibited the phosphorylation of Tyr641 of STAT6 in Beas-2B cells stimulated with IL-4 and IL-13.
# as §1
# Cells or lungs were isolated and lysed in RIPA buffer (9806S; Cell Signaling, Danvers, Mass.), protein was quantified using BCA Protein Assay Reagent (23227; Thermo Fisher Scientific, Rockford, Ill.) and denatured in Laemmli sample buffer (161-0737; Bio-Rad, Hercules, Calif.) according to manufacturer's protocol. Proteins were separated on SDS-Page gels were hand-poured using a standard electrophoresis unit (Bio-Rad, Hecules, Calif.) and transferred to a membrane using iBlot Gel Transfer Device (IB 1001; Invitrogen, Grand Island, N.Y.). Membranes were blocked in 2% FBS PBST and probed for c-Src, p-c-Src, pErk1/2, Erk1/2, p STAT6, STAT6, pSTAT3, STAT3, pSTAT5, STAT5, Shp-1, and β-actin. Signal was detected with a ChemiDoc XRS+ system (BioRad; Hercules, Calif.).
row,SMILES,IC50 [nM]
1,C/C(=C\C(=O)N[C@H](C(=O)N1CCC[C@H]1C(=O)N1CCc2ccccc21)C(C)(C)C)c1ccc(C(F)(F)P(=O)(OCOC(=O)C(C)(C)C)OCOC(=O)C(C)(C)C)cc1 [PM-63I],50 to 500
2,C/C(=C\C(=O)N[C@H](C(=O)N1CCC[C@H]1C(=O)N1CCCCC1)C(C)(C)C)c1ccc(C(F)(F)P(=O)(OCOC(=O)C(C)(C)C)OCOC(=O)C(C)(C)C)cc1 [PM-74I],50
3,C/C(=C\C(=O)N[C@H](C(=O)N1CCC[C@H]1C(=O)N1CCCCc2ccccc21)C(C)(C)C)c1ccc(C(F)(F)P(=O)(OCOC(=O)C(C)(C)C)OCOC(=O)C(C)(C)C)cc1 [PM-80I],50 to 500
4,C/C(=C\C(=O)N[C@H](C(=O)N1CCC[C@H]1C(=O)N1CCc2ccccc2C1)C(C)(C)C)c1ccc(C(F)(F)P(=O)(OCOC(=O)C(C)(C)C)OCOC(=O)C(C)(C)C)cc1 [PM-81I],50 to 500
5,C/C(=C\C(=O)N[C@H](C(=O)N1CCC[C@H]1C(=O)N1CCCc2ccccc21)C(C)(C)C)c1ccc(C(F)(F)P(=O)(OCOC(=O)C(C)(C)C)OCOC(=O)C(C)(C)C)cc1 [PM-86I],50 to 500
